In the RepoRT retention time repository:
Where a name gives a salt, the structure may show the parent alone.

test: RP, Thermo Scientific Hypersil GOLD, 1.9 µm, 40 °C, 0.4 mL/min; A: water + 0.1% formic acid, pH 3; B: acetonitrile + 0.1% formic acid, pH 3; gradient (min/%B) 0/0 1/0 11/100 13/100 14/0 16/0; conditions: stereoisomer not certain

SMILES	LC retention time [min]
O=C(O)Cc1ccc(O)c(O)c1 [3-4-DIHYDROXYPHENYLACETATE]	4.32
CCCCCCCCCCCCCCCCCCOCC(O)COP(=O)([O-])OCC[N+](C)(C)C (stereo not drawn) [C18_LysoPAF]	10.4
O=C(O)c1cc(O)cc(O)c1 [3-5-Dihydroxybenzoic acid]	3.57
CC(C)C(C(=O)O)C(O)C(=O)O (stereo not drawn) [3-isopropylmalic acid]	4.68
CN1CC(=O)NC1=N [CREATININE]	0.62
O=c1[nH]c(=O)c2nccnc2[nH]1 [2-4-DIHYDROXYPTERIDINE]	0.96
NC(=O)c1ncn(C2OC(COP(=O)(O)O)C(O)C2O)c1N (stereo not drawn) [AICAR]	0.76
Cn1cnc(=N)c2[nH]cnc21 [3-METHYLADENINE]	0.8
CC(C)(CC(=O)O)CC(=O)O [3-3-Dimethylglutaric acid]	5.04
Nc1ncnc2c1ncn2C1OC(COP(=O)(O)O)C(O)C1O (stereo not drawn) [ADENOSINE-MONOPHOSPHATE]	0.77
CC12CCC(=O)C=C1CCC1C2C(O)CC2(C)C(C(=O)CO)CCC12 (stereo not drawn) [CORTICOSTERONE]	7.47
NCC(O)c1ccc(O)cc1 (stereo not drawn) [P-OCTOPAMINE]	0.71
O=C(O)CCCCCCCC(=O)O [AZELATE]	6.12
O=C(O)c1ccnc2ccccc12 [4-QUINOLINECARBOXYLIC ACID]	1.29
O=C(O)c1cccc(O)c1O [2-3-DIHYDROXYBENZOATE]	5.01
CCC(O)C(=O)[O-] (stereo not drawn) [2-HYDROXYBUTYRATE]	1.71
O=P(O)(O)OCC1OC(O)C(O)C1O [D-RIBOSE 5-PHOSPHATE]	0.65
CC12CCC(=O)C=C1CCC1C2C(=O)CC2(C)C1CCC2(O)C(=O)CO (stereo not drawn) [CORTISONE]	6.81
C[N+](C)(C)CCO [CHOLINE]	0.62
Nc1ccccc1C(=O)O [ANTHRANILATE]	5.29
CC(N)(Cc1cnc[nH]1)C(=O)O (racemic) [Alpha-methyl-DL-histidine dihydrochloride]	0.61
Nc1nc2c(ncn2C2OC3COP(=O)(O)OC3C2O)c(=O)[nH]1 (stereo not drawn) [CYCLIC GMP]	1.29

SMILES	LC retention time [min]
CC(CCC(=O)O)C1CCC2C3C(O)CC4CC(O)CCC4(C)C3CCC12C (stereo not drawn) [CHENODEOXYCHOLATE]	9.15
O=C(O)c1ccc(O)c(O)c1 [3-4-DIHYDROXYBENZOATE]	3.49
Cc1ccncc1 [4-Methylpyridine (4-Picoline)]	0.87
O=P(O)(O)OC(CO)CO [BETA-GLYCEROPHOSPHATE]	0.67
CCCCCCCCCCCCCCCCCCCC(=O)O [ARACHIDATE]	13.5
NC(=O)NC1NC(=O)NC1=O (stereo not drawn) [ALLANTOIN]	0.67
CCCCCCCCCCCCCCC=COCC(O)COP(=O)([O-])OCC[N+](C)(C)C (stereo not drawn) [C16_PlasmLPC]	10.5
CC(CN)C(=O)O (stereo not drawn) [AMINOISOBUTANOATE]	0.67
C=CC1=C(C)C(C=c2[nH]c(=Cc3[nH]c(C=C4NC(=O)C(C)=C4C=C)c(C)c3CCC(=O)O)c(CCC(=O)O)c2C)=NC1=O [BILIVERDIN]	7.99
COc1cc(C(O)CN)ccc1O (stereo not drawn) [NORMETANEPHRINE]	0.82
Nc1c(O)cccc1C(=O)O [3-HYDROXYANTHRANILATE]	3.43
N[C@@H](Cc1ccc(O)c([N+](=O)[O-])c1)C(=O)O [3-NITRO-L-TYROSINE]	3.77
NC(N)=NCCCC(=O)O [4-GUANIDINOBUTANOATE]	0.84
Cc1cc2nc[nH]c2cc1C [5-6 DIMETHYLBENZIMIDAZOLE]	5.05
O=C(O)CC(O)(CC(=O)O)C(=O)O [CITRATE]	0.9
O=C(O)CCCCC1CCSS1 (racemic)	7.53
CC(CCC(=O)O)C1CCC2C3CCC4CC(=O)CCC4(C)C3CCC12C (stereo not drawn) [5b-cholanic acid-3-ONE]	10.7
O=C(O)c1ccc(O)cc1O [2-4-Dihydroxybenzoic acid]	4.88
CC1C(=O)Nc2ccccc21 (stereo not drawn) [3-METHYL-2-OXINDOLE]	6.25
Nc1cncc(C(=O)O)c1 [5-Aminopyridine-3-carboxylic acid]	0.74
Cn1cnc2c(ncn2C2OC(CO)C(O)C2O)c1=N (stereo not drawn) [1-METHYLADENOSINE]	3.82

The next lines start with the values.

LC retention time [min]	SMILES
0.82	[NH3+]CC(=O)N1CCCC1C(=O)[O-] (stereo not drawn) [Gly-Pro]
4.92	O=C(O)CNC(=O)c1ccccc1 [HIPPURATE]
0.62	NCC(=O)NCC(=O)O [Gly-Gly]
0.82	O=c1ccn(C2CC(O)C(COP(=O)(O)O)O2)c(=O)[nH]1 (stereo not drawn) [DEOXYURIDINE-MONOPHOSPHATE]
7.45	CCCCCCCC=CC(=O)OC(CC(=O)[O-])C[N+](C)(C)C (stereo not drawn) [Trans -2-decenoyl-l-carnitine]
0.84	Nc1ncnc2c1ncn2C1CC(O)C(COP(=O)(O)O)O1 (stereo not drawn) [DEOXYADENOSINE MONOPHOSPHATE]
0.69	C[n+]1cccc(C(=O)[O-])c1 [TRIGONELLINE]
0.83	CC(=O)NCC(=O)O [N-ACETYLGLYCINE]
1.24	O=c1ccn(C2CC(O)C(CO)O2)c(=O)[nH]1 (stereo not drawn) [DEOXYURIDINE]
0.84	O=c1cc[nH]c(=O)[nH]1 [URACIL]
0.83	CC(=O)NC(CC(=O)O)C(=O)O (stereo not drawn) [N-ACETYLASPARTATE]
0.82	O=C1CCNC(=O)N1 [DIHYDROURACIL]
5.26	CC(C)=CCNc1ncnc2nc[nH]c12 [N6-(DELTA2-ISOPENTENYL)-ADENINE]
0.66	OCC1OC(O)C(O)C1O (stereo not drawn) [RIBOSE]
0.59	Cc1ncc(CO)c(CN)c1O [PYRIDOXAMINE]
0.64	OCC1OC(O)C(O)C(O)C1O (stereo not drawn) [GALACTOSE]
0.74	O=CNCC(=O)O [N-FORMYLGLYCINE]
0.64	O=C1OC(CO)C(O)C(O)C1O (stereo not drawn) [GLUCONOLACTONE]
4.61	CSCCC(NC(C)=O)C(=O)O (stereo not drawn) [N-ACETYLMETHIONINE]
0.68	NC(=O)c1ccc[n+](C2OC(COP(=O)([O-])O)C(O)C2O)c1 (stereo not drawn) [NICOTINAMIDE MONONUCLEOTIDE]
1.24	CC(=O)NC(C)C(=O)O (stereo not drawn) [N-ACETYLALANINE]
10.3	O=CCc1ccccc1 [PHENYLACETALDEHYDE]
0.63	Cc1ncc(C[n+]2csc(CCOP(=O)(O)O)c2C)c(N)n1 [THIAMINE MONOPHOSPHATE]
0.6	O=c1ccn(C2OC(COP(=O)(O)OP(=O)(O)OP(=O)(O)O)C(O)C2O)c(=O)[nH]1 (stereo not drawn) [URIDINE TRIPHOSPHATE]
4.77	O=S(=O)(O)Oc1c[nH]c2ccccc12 [INDOXYL SULFATE]
6.99	NC(Cc1cc(I)c(Oc2ccc(O)c(I)c2)c(I)c1)C(=O)O (stereo not drawn) [LIOTHYRONINE]
5.67	CCCCCC(=O)OC(CC(=O)[O-])C[N+](C)(C)C [Hexanoyl-L-carnitine]
0.63	OCC1OC(OCC2OC(O)C(O)C(O)C2O)C(O)C(O)C1O (stereo not drawn) [MELIBIOSE]

LC retention time [min]	SMILES
5.26	O=C(O)C(=O)Cc1ccccc1 [PHENYLPYRUVATE]
13.9	C=C1CCC(O)CC1=CC=C1CCCC2(C)C1CCC2C(C)C=CC(C)C(C)C (stereo not drawn) [VITAMIN D2]
2.05	O=C(O)C(=O)C(=O)O [MESOXALATE]
1.48	CCC(C)C(N)C(=O)O (stereo not drawn) [ISOLEUCINE]
0.68	O=C(O)C1(O)CC(O)C(O)C(O)C1 (stereo not drawn) [QUINATE]
12.5	CCCCCCCCCCCC=CCCCCC(=O)[O-] [PETROSELINATE]
0.62	NC(CCO)C(=O)O (stereo not drawn) [HOMOSERINE]
0.82	NC(=O)NCCC(=O)O [UREIDOPROPIONATE]
1.67	CCCCC(N)C(=O)O (stereo not drawn) [NORLEUCINE]
8.05	CC(=O)C1CCC2C3CC=C4CC(OS(=O)(=O)O)CCC4(C)C3CCC12C (stereo not drawn) [pregnenolone sulfate]
6.74	CCCCCCCC(=O)OC(CC(=O)[O-])C[N+](C)(C)C [Octanoyl-L-carnitine]
0.82	NC(=O)C=CC(=O)O [MALEAMATE]
4.68	Nc1nc2ncc(CNc3ccc(C(=O)NC(CCC(=O)O)C(=O)O)cc3)nc2c(=O)[nH]1 (stereo not drawn) [FOLATE]
0.77	O=C([O-])c1cc(=O)[nH]c(=O)[nH]1 [OROTATE]
0.68	CCCCCCCCCCCCCCCCCCC(=O)O [nonadecanoic acid]
0.72	Cc1ncc(CO)c(C=O)c1O [PYRIDOXAL]
0.61	Cc1ncc(C[n+]2csc(CCO)c2C)c(N)n1 [THIAMINE]
1.6	Cn1cc(C(N)=O)ccc1=O [N-methyl-2-pyridone-5-carboxamide]
0.68	NC(CSCC(=O)O)C(=O)O (stereo not drawn) [S-CARBOXYMETHYLCYSTEINE]
6.96	O=C(O)/C=C/c1ccccc1 [TRANS-CINNAMATE]
3.66	CC(CC(=O)O)C(=O)O (stereo not drawn) [Methyl-succinic acid]
1.77	Nc1nc2c(ncn2C2CC(O)C(CO)O2)c(=O)[nH]1 (stereo not drawn) [DEOXYGUANOSINE]
8.07	CC12CCC3c4ccc(O)cc4CCC3C1CCC2O (stereo not drawn) [ESTRADIOL-17ALPHA]
0.65	N[C@@H](CCC(=O)O)C(=O)O [L-Glutamic acid]
0.68	OCC(O)CO [GLYCEROL]
7.13	CC(CCC(=O)NCCS(=O)(=O)O)C1CCC2C3C(O)CC4CC(O)CCC4(C)C3CC(O)C12C (stereo not drawn) [taurocholic acid  sodium salt hydrate]
0.68	OCC1OC(OCC2OC(OC3(CO)OC(CO)C(O)C3O)C(O)C(O)C2O)C(O)C(O)C1O (stereo not drawn) [RAFFINOSE]
